Measured values: patent publication US6878742B2, “Heterocyclic sulfonamide inhibitors of beta amyloid production” (Wyeth, priority 2000, dated 2005)
Values joined by “and” are separate entries in the source; they are usually repeats but may differ in a detail not shown here. Equal entries are not always repeated.

test system: amyloid precursor protein (APP) proteolysis; experiment: Repressor Release Assay (RRA); format: cell-based; settings: Conc 1 μg/mL; luciferase activity over diluent control
Method: The beta amyloid inhibitory activity of many of the compounds of the present invention has been determined using the Repressor Release Assay (RRA). See, Table 23 below. A compound is considered active in RRA if it leads to at least a 1.5 fold increase in luciferase activity at 20 μM and is non-toxic.
The compounds generated as described in Examples 1 through 220 were tested in the RRA in accordance with published techniques [Shuey, D. J., Sheiffele, P., Jones, D., Cockett, M. I., and Quinet, E. M. (1999), “Repressor release: a useful tool for monitoring amyloid precursor protein (APP) proteolysis in mammalian cells”, Society for Neuroscience Abstracts, Vol. 25, 29th Annual Meeting of Society for Neuroscience, Miami Beach, Fla., Oct. 23-28, 1999]. Briefly, this assay is performed as follows.
CHO-K1 cells are cultured in whole DMEM media (DMEM—High Glucose with 10% fetal bovine serum, 1% Non-essential Amino Acids, and 1% Penicillin-Streptomycin) at 37° C. with 5% CO2. Two million cells are plated into 10-cm dishes 24 hrs prior to transfection.
Transient transfections are completed as recommended by Gibco BRL using their Lipofectamine Plus system. First, 6 μg of pRSVO-luc and 6 μg of APP-lacI construct DNA are added to 460 μL Opti-Mem transfection media and incubated with 30 μL Plus reagent for 15 minutes. Then, a lipid mixture of 40 μL Lipofectamine reagent and 460 μL Opti-Mem transfection media is incubated with the DNA-Plus reagent mixture for 15 minutes. During the DNA-lipid incubation, the CHO-K1 cells are washed once and covered in 5.0 mL DMEM media without Penicillin-Streptomycin. The DNA-lipid preparation is then layered onto these cells and incubated at 37° C. overnight.
One and one half million transfected cells per well (100 μL total volume) are plated into sterile, opaque Packard 96-well Cultur-Plates in clear DMEM whole media (DMEM—without phenol red) and incubated at 37° C. with 5% CO2 for 3-5 hours.
Compounds are diluted using two different protocols; one protocol is used for compounds supplied neat (weighed powder in vial) and the other protocol is used for compounds supplied in solution (20 mM in DMSO in 96-well plates). For both protocols, 25 mM Hepes and 25 mM Hepes/1% DMSO are prepared fresh to be used as diluent. The Hepes/DMSO is used as the diluent control on all experimental plates.
The following table depicts the steps for compound dilution (please note that the last step is the addition of compound to cells/media in tissue culture plate):
Because some compounds arrive in 96-well format at 20 mM, the following represents the protocol for their dilution (note that an average molecular weight of these compounds was used to calculate these dilutions and as above, the last step is the addition of compound to cells/media in tissue culture plate):
Once compounds are diluted, they are applied in duplicate on cells in tissue culture plates (prepared above). Cells are incubated with compound at 37° C. with 5% CO2 for an additional 36-48 hours.
Luciferase assays (LucLite reagent, Packard) are performed and are read on a Packard TopCount instrument. Media is removed from each 96-well plate and replaced with 100 μL PBS per well (with Mg^2+ and Ca^2+). An equal volume (100 μL) of the LucLite lysis/substrate buffer is added to each well and the plates are sealed and mixed in the dark on a rotary shaker for 15-30 minutes at room temperature. Luciferase readings are then taken on the TopCount instrument. Measurements are expressed as relative light units (RLU) and are calculated and analyzed in MS Excel as follows.
A compound is considered active in RRA if it leads to at least a 1.5 fold increase in luciferase activity at 20 μM and is non-toxic, as determined by loss of signal (≦0.75 fold increase). Fold increase is the amount of luciferase activity (measured in relative light units) over diluent control. SEM represents the standard error of the mean for fold increase (not shown).

Point of comparison: `CC(C)CC(CO)NS(=O)(=O)c1ccc(Br)s1` (stereo not drawn) [Example 105], “APPI Fold Increase” value 1.57 fold. Against it:
- C=CCC(O)C(NS(=O)(=O)c1ccc(Cl)s1)C(C)CC (mixture of isomers) [Example 128] — lower, 1.52 fold

same assay, conditions: Conc 3 μg/mL; luciferase activity over diluent control

Point of comparison: `CC(C)CC(CO)NS(=O)(=O)c1ccc(Br)s1` (stereo not drawn) [Example 105], “APPI Fold Increase” value 2.23 fold. Against it:
- C=CCC(O)C(NS(=O)(=O)c1ccc(Cl)s1)C(C)CC (mixture of isomers) [Example 128] — higher, 2.48 fold

same assay, conditions: Conc 10 μg/mL; luciferase activity over diluent control

With `CC(C)CC(CO)NS(=O)(=O)c1ccc(Br)s1` (stereo not drawn) [Example 105] the “APPI Fold Increase” value was 3.93 fold.

In the case of `C=CCC(O)C(NS(=O)(=O)c1ccc(Cl)s1)C(C)CC` (mixture of isomers) [Example 128], the “APPI Fold Increase” value is reported as 5.62 fold and 3.86 fold.

same assay, conditions: Conc 10 μg/mL; luciferase activity over diluent control; read-out: APPI Fold Increase

Point of comparison: `C/C=C(\C)C(O)(/C(C)=C/C)[C@@H](NS(=O)(=O)c1ccc(Cl)s1)[C@@H](C)CC` (stereo partly drawn) [Example 170, 5-chloro-N-{(S,E)-2-hydroxy-3-methyl-2-[(E)-1-methylprop-1-enyl]-1-[(S)-1-methylpropyl]pent-3-enyl}thiophene-2-sulfonamide], fold induction at 10 µg/mL 1.95. Against it:
- CC(c1ccccc1)C(CO)NS(=O)(=O)c1ccc(Br)s1 (racemic) [Example 15, 5-bromo-N-[1-(hydroxymethyl)-2-phenylpropyl]thiophene-2-sulfonamide] — higher, 3.08
- CC[C@H](C)[C@H](NS(=O)(=O)c1ccc(Cl)s1)C(O)c1ccc(F)cc1 (stereo partly drawn) [Example 130, 5-chloro-N-{(S,S)-1-[(4-fluorophenyl)(hydroxy)methyl]-2-methylbutyl}thiophene-2-sulfonamide] — lower, 1.85
- C=CCCC(O)(CCC=C)[C@@H](NS(=O)(=O)c1ccc(Br)s1)[C@@H](C)CC [Example 176, 5-bromo-N-{(S)-2-but-3-enyl-2-hydroxy-1-[(S)-1-methylpropyl]hex-5-enyl}thiophene-2-sulfonamide] — lower, 1.52
- CC[C@H](C)[C@H](NS(=O)(=O)c1ccc(Cl)s1)C(O)(c1ccc(Cl)cc1)c1ccc(Cl)cc1 [Example 167, N-{(S,S)-1-[bis(4-chlorophenyl)(hydroxy)methyl]-2-methylbutyl}-5-chlorothiophene-2-sulfonamide] — higher, 3.42

same assay, conditions: Conc 20 μg/mL; luciferase activity over diluent control

For `CC(C)CC(CO)NS(=O)(=O)c1ccc(Br)s1` (stereo not drawn) [Example 105], the “APPI Fold Increase” value was 2.4 fold and 1.5 fold.
In the case of “5-chloro-N-{(S,S)-1-[(S)-1-hydroxyethyl]-2-methylbutyl}thiophene-2-sulfonamide [Example 184]”, the “APPI Fold Increase” value is reported as 3.7 fold and 2.7 fold.
With “5-chloro-N-{(S,S)-2-hydroxy-1-[(S)-1-methylpropyl]pent-4-enyl}thiophene-2-sulfonamide [Example 188]” the “APPI Fold Increase” value was 6.3 fold and 3.6 fold.

`C=CCC(O)C(NS(=O)(=O)c1ccc(Cl)s1)C(C)CC` (mixture of isomers) [Example 128] was tested, and the “APPI Fold Increase” value was 5.9 fold.

same assay, conditions: Conc 20 μg/mL; luciferase activity over diluent control; read-out: APPI Fold Increase

Point of comparison: `CCOC(=O)CNC1CCC([C@@H](CO)NS(=O)(=O)c2ccc(Cl)s2)CC1` (stereo partly drawn) [Example 220, 5-chloro-N-[(S)-2-hydroxy-1-(4-(carboethoxymethyl)aminocyclohexyl)ethyl]thiophene 2-sulfonamide], fold induction at 20 µg/mL 2.5. Against it:
- C[C@@H](c1ccccc1)[C@@H](CO)NS(=O)(=O)c1ccc(Cl)s1 [Example 46, 5-chloro-N-[(1S,2S)-1-(hydroxymethyl)-2-phenylpropyl]thiophene-2-sulfonamide] — higher, 5.8
- O=S(=O)(NC1(CO)CC2CCC1C2)c1ccc(Cl)s1 (stereo not drawn) [Example 178, 5-chloro-N-[2-(hydroxymethyl)bicyclo[2.2.1]hept-2-yl]thiophene-2-sulfonamide] — lower, 2.3
- CSCC[C@@H](CO)NS(=O)(=O)c1ccc(Br)s1 [Example 111, 5-bromo-N-[(S)-1-(hydroxymethyl)-3-(methylthio)propyl]thiophene-2-sulfonamide] — lower, 1.8
- CCC(CC)[C@H](NS(=O)(=O)c1ccc(Cl)s1)C(C)(C)O [Example 223, 5-Chloro-N-[(S)-2-ethyl-1-(1-hydroxy-1-methylethyl)butyl]thiophene-2-sulfonamide] — higher, 5.6
- CC[C@H](C)[C@@H](C=O)NS(=O)(=O)c1ccc(Cl)s1 [Example 118, 5-Chloro-N-[(S,S)-1-formyl-2-methylbutyl]thiophene-2 sulfonamide] — higher, 4.8
- O=S(=O)(N[C@H](CO)C1CCC(NCc2ccncc2)CC1)c1ccc(Cl)s1 (stereo partly drawn) [Example 218, 5-chloro-N-[(S)-2-hydroxy-1-(4-(4-pyridyl)methylaminocyclohexyl)ethyl]thiophene-2-sulfonamide] — higher, 2.8
- O=S(=O)(N[C@H](CO)C1CCC(NCc2ccccn2)CC1)c1ccc(Cl)s1 (stereo partly drawn) [Example 219, 5-chloro-N-[(S)-2-hydroxy-1-(4-(2-pyridyl)methylaminocyclohexyl)ethyl]thiophene-2-sulfonamide] — lower, 2.3
- CC[C@H](C)[C@@H](/C=N/O)NS(=O)(=O)c1ccc(Cl)s1 [Example 230] — higher, 4.8
- C=C(C)CC(O)C1(NS(=O)(=O)c2ccc(Cl)s2)CCCCC1 (stereo not drawn) [Example 198, 5-chloro-N-[1-(1-hydroxy-3-methylbut-3-enyl)cyclohexyl]thiophene-2-sulfonamide] — higher, 4.4
- O=S(=O)(N[C@H](CO)CSCc1ccccc1)c1ccc(Cl)s1 [Example 101, N-[R-2-(benzylthio)-1-(hydroxymethyl)ethyl]-5-chlorothiophene-2-sulfonamide] — higher, 2.7
- C[C@@H](O)[C@@H](CO)NS(=O)(=O)c1ccc(Br)s1 [Example 117, 5-bromo-N-[(R,R)-2-hydroxy-1-(hydroxymethyl)propyl]thiophene-2-sulfonamide] — higher, 2.6
- CCC[C@H](C)[C@@H](CO)NS(=O)(=O)c1ccc(Cl)s1 [Example 33, 5-chloro-N-[(1S,2S)-1-(hydroxymethyl)-2-methylpentyl]thiophene-2-sulfonamide] — higher, 6.5
- CC(C)C[C@@H](c1ccccc1)[C@@H](CO)NS(=O)(=O)c1ccc(Cl)s1 [Example 47, 5-chloro-N-[(1S,2S)-1-(hydroxymethyl)-4-methyl-2-phenylpentyl]thiophene-2-sulfonamide] — higher, 5.4
- O=S(=O)(N[C@H](CO)C1CCC(N2CCOCC2)CC1)c1ccc(Cl)s1 (stereo partly drawn) [Example 217, 5-chloro-N-[(S)-2-hydroxy-1-(4-morpholinocyclohexyl)ethyl]thiophene-2-sulfonamide] — lower, 1.8
- CC[C@H](c1ccc(OC)cc1)[C@@H](CO)NS(=O)(=O)c1ccc(Cl)s1 [Example 32, 5-chloro-N-[(1S,2R)-1-(hydroxymethyl)-2-(4-methoxyphenyl)butyl]thiophene-2-sulfonamide] — higher, 5
- CCCC(CCC)[C@@H](CO)NS(=O)(=O)c1ccc(Cl)s1 [Example 40, 5-chloro-N-[(1S)-2-propyl-1-(hydroxymethyl)pentyl]thiophene-2-sulfonamide] — higher, 3.9
- CCCCC[C@H](c1ccc(OC)cc1)[C@@H](CO)NS(=O)(=O)c1ccc(Cl)s1 [Example 43, 5-chloro-N-[(1S,2R)-1-(hydroxymethyl)-2-(4-methoxyphenyl)heptyl]thiophene-2-sulfonamide] — lower, 1.7
- CNC1CCC([C@@H](CO)NS(=O)(=O)c2ccc(Cl)s2)CC1 (stereo partly drawn) [Example 212, 5-chloro-N-[(S)-2-hydroxy-1-(4-methylaminocyclohexyl)ethyl]thiophene-2-sulfonamide] — lower, 1.7
- CCCCC(CO)NS(=O)(=O)c1ccc(Br)s1 (racemic) [Example 106, 5-bromo-N-[1-(hydroxymethyl)pentyl]thiophene-2-sulfonamide] — lower, 2.4
- CC(C)C[C@@H](c1cccnc1)[C@@H](CO)NS(=O)(=O)c1ccc(Br)s1 [Example 69, 5-bromo-N-[(1S,2S)-1-(hydroxymethyl)-4-methyl-2-pyridin-3-ylpentyl]thiophene-2-sulfonamide] — lower, 1.5
